IC50 data for 25 molecules are collected here from patent US7601716B2, “Pyridopyrazines and derivatives thereof as ALK and c-Met inhibitors” (Cephalon, Inc., priority 2006, dated 2009).

The assay deals with baculovirus-expressed ALK (Homo sapiens, UniProt Q9UM73). Description: ALK Kinase Assay (ELISA/TRF, PLC-γ substrate). Note: 1 µM ATP (Km level). In kind it is biochemical. As to conditions: read-out: ALK Kinase Inhibition (IC50). Here is the method: Example compounds were tested for their ability to inhibit the kinase activity of baculovirus-expressed ALK using a modification of the ELISA protocol reported for trkA in Angeles, T. S. et al., Anal. Biochem. 1996, 236, 49-55, which is incorporated herein by reference in its entirety. Phosphorylation of the substrate, phospholipase C-gamma (PLC-γ) generated as a fusion protein with glutathione S-transferase (GST) as reported in Rotin, D. et al., EMBO J. 1992, 11, 559-567, which is incorporated herein by reference in its entirety, was detected with a europium-labeled anti-phosphotyrosine antibody and measured by time-resolved fluorescence (TRF). Briefly, each 96-well plate was coated with 100 μL/well of 10 μg/mL substrate (phospholipase C-γ) in Tris-buffered saline (TBS). […] The reaction was initiated by adding enzyme (30 ng/ml ALK) and was allowed to proceed at 37° C. for 15 minutes. Detection of the phosphorylated product was performed by adding 100 μl/well of Eu-N1 labeled PT66 antibody (Perkin Elmer # AD0041). Incubation at 37° C. then proceeded for one (1) hour, followed by addition of 100 μL enhancement solution (Wallac #1244-105). The plate was gently agitated and after thirty minutes, the fluorescence of the resulting solution was measured using the EnVision 2100 (or 2102) multilabel plate reader (Perkin Elmer).
Sequence of baculovirus-expressed ALK (Q9UM73 19-1620): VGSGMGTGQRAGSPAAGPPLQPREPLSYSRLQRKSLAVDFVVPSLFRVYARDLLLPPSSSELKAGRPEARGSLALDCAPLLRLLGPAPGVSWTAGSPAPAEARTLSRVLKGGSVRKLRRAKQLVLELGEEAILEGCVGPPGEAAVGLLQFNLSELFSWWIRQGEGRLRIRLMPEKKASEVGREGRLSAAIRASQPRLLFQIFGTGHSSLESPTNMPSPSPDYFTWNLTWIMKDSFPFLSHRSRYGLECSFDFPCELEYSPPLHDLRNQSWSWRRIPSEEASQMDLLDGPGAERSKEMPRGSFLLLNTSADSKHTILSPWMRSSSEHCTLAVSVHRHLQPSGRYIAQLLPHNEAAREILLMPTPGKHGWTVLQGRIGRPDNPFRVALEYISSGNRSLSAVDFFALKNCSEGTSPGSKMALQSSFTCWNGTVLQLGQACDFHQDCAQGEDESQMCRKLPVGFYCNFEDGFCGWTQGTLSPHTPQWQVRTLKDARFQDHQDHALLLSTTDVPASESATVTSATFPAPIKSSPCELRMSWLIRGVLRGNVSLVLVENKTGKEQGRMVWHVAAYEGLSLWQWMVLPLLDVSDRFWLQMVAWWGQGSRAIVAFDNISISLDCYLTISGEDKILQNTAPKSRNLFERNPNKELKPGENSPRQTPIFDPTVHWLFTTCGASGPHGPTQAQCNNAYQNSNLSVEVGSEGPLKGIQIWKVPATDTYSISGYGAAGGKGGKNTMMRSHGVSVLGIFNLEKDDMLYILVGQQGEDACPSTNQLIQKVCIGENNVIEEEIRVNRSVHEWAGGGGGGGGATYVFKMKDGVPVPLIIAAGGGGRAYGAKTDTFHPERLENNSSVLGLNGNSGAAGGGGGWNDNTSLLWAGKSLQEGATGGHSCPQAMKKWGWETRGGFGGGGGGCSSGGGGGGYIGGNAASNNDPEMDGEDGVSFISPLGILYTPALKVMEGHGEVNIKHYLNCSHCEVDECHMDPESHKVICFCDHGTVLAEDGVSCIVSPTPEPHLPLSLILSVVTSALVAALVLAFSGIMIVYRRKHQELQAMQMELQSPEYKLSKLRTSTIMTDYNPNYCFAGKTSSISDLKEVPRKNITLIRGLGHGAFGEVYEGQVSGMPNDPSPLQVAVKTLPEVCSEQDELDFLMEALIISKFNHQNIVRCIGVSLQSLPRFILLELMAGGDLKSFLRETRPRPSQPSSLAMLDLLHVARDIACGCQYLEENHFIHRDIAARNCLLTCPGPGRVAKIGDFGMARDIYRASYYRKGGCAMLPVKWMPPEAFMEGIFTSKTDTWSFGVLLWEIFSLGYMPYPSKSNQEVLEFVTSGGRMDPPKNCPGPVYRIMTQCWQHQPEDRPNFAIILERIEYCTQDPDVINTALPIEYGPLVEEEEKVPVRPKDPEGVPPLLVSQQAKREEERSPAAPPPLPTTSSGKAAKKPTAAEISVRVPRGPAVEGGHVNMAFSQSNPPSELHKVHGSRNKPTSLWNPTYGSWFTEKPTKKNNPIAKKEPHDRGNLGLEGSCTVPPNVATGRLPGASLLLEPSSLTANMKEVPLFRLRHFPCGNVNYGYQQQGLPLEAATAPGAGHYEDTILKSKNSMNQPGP
Data analysis was performed using ActivityBase (IDBS, Guilford, UK). IC50 values were calculated by plotting percent inhibition versus log10 of the concentration of compound and fitting to the nonlinear regression sigmoidal dose-response (variable slope) equation in XLFit (IDBS, Guilford, UK).
On the technique in general: In an ELISA, binding on a coated surface is turned into a signal by an enzyme label.

Molecules are shown by their SMILES. Bounds are passed on as bounds.

One may read the IC50 as the concentration at which inhibition is half-maximal.

Consider `O=C(NCc1ccncc1)c1ccc(-c2cnc3c(c2)N(Cc2cc(Cl)ccc2C(F)(F)F)CCN3)cc1` [Example 400, 4-{1-[5-Chloro-2-(trifluoromethyl)benzyl]-1,2,3,4-tetrahydropyrido[2,3-b]pyrazin-7-yl}-N-pyridin-4-ylmethylbenzamide], for which the IC50 is 100 to 1000 nM.

Consider `O=C(NCC(c1ccccc1)c1ccccc1)c1ccc(-c2cnc3c(c2)N(Cc2cc(Cl)ccc2C(F)(F)F)CCN3)cc1` [Example 391, 4-{1-[5-Chloro-2-(trifluoromethyl)benzyl]-1,2,3,4-tetrahydropyrido[2,3-b]pyrazin-7-yl}-N-(2,2-diphenylethyl)benzamide], for which the IC50 was 100 to 1000 nM.

Regarding `O=C(c1ccc(-c2cnc3c(c2)N(Cc2cc(Cl)ccc2C(F)(F)F)CCN3)cc1)N1CCC[C@H]1CN1CCCC1` [Example 430, (4-{1-[5-Chloro-2-(trifluoromethyl)benzyl]-1,2,3,4-tetrahydropyrido[2,3-b]pyrazin-7-yl}phenyl)-((S)-2-pyrrolidin-1-ylmethylpyrrolidin-1-yl)methanone], the IC50 was below 100 nM.

On to `O=C(c1cccc(-c2cnc3c(c2)N(Cc2cc(Cl)ccc2C(F)(F)F)CCN3)c1)N1CCN(c2ncnc3ccsc23)CC1` [Example 320, (3-{1-[5-Chloro-2-(trifluoromethyl)benzyl]-1,2,3,4-tetrahydropyrido[2,3-b]pyrazin-7-yl}phenyl)-(4-thieno[3,2-d]pyrimidin-4-ylpiperazin-1-yl)methanone], for which the IC50 was in the range of 100 to 1000 nM.

Turning to `O=C(NCc1cccc2ccccc12)c1ccc(-c2cnc3c(c2)N(Cc2cc(Cl)ccc2C(F)(F)F)CCN3)cc1` [Example 409, 4-{1-[5-Chloro-2-(trifluoromethyl)benzyl]-1,2,3,4-tetrahydropyrido[2,3-b]pyrazin-7-yl}-N-naphthalen-1-ylmethylbenzamide], the IC50 was in the range of 1000 to 10000 nM.

Take `O=C(c1cccc(-c2cnc3c(c2)N(Cc2cc(Cl)ccc2C(F)(F)F)CCN3)c1)N1CCC[C@H]1CN1CCCC1` [Example 365, (3-{1-[5-Chloro-2-(trifluoromethyl)benzyl]-1,2,3,4-tetrahydropyrido[2,3-b]pyrazin-7-yl}phenyl)-((S)-2-pyrrolidin-1-ylmethylpyrrolidin-1-yl)methanone]: the IC50 is below 100 nM.

Turning to `O=C(NCC1CCCO1)c1cccc(-c2cnc3c(c2)N(Cc2cc(Cl)ccc2C(F)(F)F)CCN3)c1` (stereo not shown) [Example 352, 3-{1-[5-Chloro-2-(trifluoromethyl)benzyl]-1,2,3,4-tetrahydropyrido[2,3-b]pyrazin-7-yl}-N-(tetrahydrofuran-2-ylmethyl)benzamide], the IC50 is 100 to 1000 nM.

As for `CS(=O)(=O)c1ccc(CNC(=O)c2cccc(-c3cnc4c(c3)N(Cc3cc(Cl)ccc3C(F)(F)F)CCN4)c2)cc1` [Example 347, 3-{1-[5-Chloro-2-(trifluoromethyl)benzyl]-1,2,3,4-tetrahydropyrido[2,3-b]pyrazin-7-yl}-N-(4-methanesulfonylbenzyl)benzamide], the IC50 is 100 to 1000 nM.

`COc1cccc(CNC(=O)c2cccc(-c3cnc4c(c3)N(Cc3cc(Cl)ccc3C(F)(F)F)CCN4)c2)c1` [Example 353, 3-{1-[5-Chloro-2-(trifluoromethyl)benzyl]-1,2,3,4-tetrahydropyrido[2,3-b]pyrazin-7-yl}-N-(3-methoxybenzyl)benzamide]: the IC50 was 1000 to 10000 nM.

`O=C(NCC(c1ccccc1)c1ccccc1)c1cccc(-c2cnc3c(c2)N(Cc2cc(Cl)ccc2C(F)(F)F)CCN3)c1` [Example 328, 3-{1-[5-Chloro-2-(trifluoromethyl)benzyl]-1,2,3,4-tetrahydropyrido[2,3-b]pyrazin-7-yl}-N-(2,2-diphenylethyl)benzamide]: the IC50 is 100 to 1000 nM.

In the case of `O=C(NC(c1ccccc1)c1ccccc1)c1cccc(-c2cnc3c(c2)N(Cc2cc(Cl)ccc2C(F)(F)F)CCN3)c1` [Example 333, N-Benzhydryl-3-{1-[5-chloro-2-(trifluoromethyl)benzyl]-1,2,3,4-tetrahydropyrido[2,3-b]pyrazin-7-yl}benzamide], the IC50 was 100 to 1000 nM.

For `O=C(c1cccc(-c2cnc3c(c2)N(Cc2cc(Cl)ccc2C(F)(F)F)CCN3)c1)N1CCC(n2c(=O)[nH]c3ccccc32)CC1` [Example 310, 1-[1-(3-{1-[5-Chloro-2-(trifluoromethyl)benzyl]-1,2,3,4-tetrahydropyrido[2,3-b]pyrazin-7-yl}benzoyl)piperidin-4-yl]-1,3-dihydrobenzoimidazol-2-one], the IC50 fell in the range of 100 to 1000 nM.

With `O=C(c1cccc(-c2cnc3c(c2)N(Cc2cc(Cl)ccc2C(F)(F)F)CCN3)c1)N1CCN(c2cnccn2)CC1` [Example 339, (3-{1-[5-Chloro-2-(trifluoromethyl)benzyl]-1,2,3,4-tetrahydropyrido[2,3-b]pyrazin-7-yl}phenyl)-(2,3,5,6-tetrahydro-[1,2′]bipyrazinyl-4-yl)methanone], the IC50 was 100 to 1000 nM.

For the molecule `O=C(c1cccc(-c2cnc3c(c2)N(Cc2cc(Cl)ccc2C(F)(F)F)CCN3)c1)N1CCN(CC2CCCCC2)CC1` [Example 362, (3-{1-[5-Chloro-2-(trifluoromethyl)benzyl]-1,2,3,4-tetrahydropyrido[2,3-b]pyrazin-7-yl}phenyl)-[4-(cyclohexylmethyl)piperazin-1-yl]methanone], the IC50 was 100 to 1000 nM.

As to `O=C(NCc1ccc(Cl)cc1)c1ccc(-c2cnc3c(c2)N(Cc2cc(Cl)ccc2C(F)(F)F)CCN3)cc1` [Example 413, N-(4-Chlorobenzyl)-4-{1-[5-chloro-2-(trifluoromethyl)benzyl]-1,2,3,4-tetrahydropyrido[2,3-b]pyrazin-7-yl}benzamide], the IC50 was 100 to 1000 nM.

Consider `O=C(c1ccc(-c2cnc3c(c2)N(Cc2cc(Cl)ccc2C(F)(F)F)CCN3)cc1)N1CCN(CCc2ccccn2)CC1` [Example 394, (4-{1-[5-Chloro-2-(trifluoromethyl)benzyl]-1,2,3,4-tetrahydropyrido[2,3-b]pyrazin-7-yl}phenyl)-[4-(2-pyridin-2-yl-ethyl)piperazin-1-yl]methanone], for which the half-maximal inhibitory concentration (IC50) was below 100 nM.

With `O=C(NCc1cc(C(F)(F)F)cc(C(F)(F)F)c1)c1cccc(-c2cnc3c(c2)N(Cc2cc(Cl)ccc2C(F)(F)F)CCN3)c1` [Example 332, N-[3,5-Bis(trifluoromethyl)benzyl]-3-{1-[5-chloro-2-(trifluoromethyl)benzyl]-1,2,3,4-tetrahydropyrido[2,3-b]pyrazin-7-yl}benzamide], the IC50 lay in the range of 100 to 1000 nM.

For the molecule `O=C(NC1CCN(Cc2ccccc2)CC1)c1ccc(-c2cnc3c(c2)N(Cc2cc(Cl)ccc2C(F)(F)F)CCN3)cc1` [Example 390, N-(1-Benzylpiperidin-4-yl)-4-{1-[5-chloro-2-(trifluoromethyl)benzyl]-1,2,3,4-tetrahydropyrido[2,3-b]pyrazin-7-yl}benzamide], the IC50 is 100 to 1000 nM.

As for `O=C(NCCOc1ccccc1)c1ccc(-c2cnc3c(c2)N(Cc2cc(Cl)ccc2C(F)(F)F)CCN3)cc1` [Example 420, 4-{1-[5-Chloro-2-(trifluoromethyl)benzyl]-1,2,3,4-tetrahydropyrido[2,3-b]pyrazin-7-yl}-N-(2-phenoxyethyl)benzamide], the IC50 is 100 to 1000 nM.

Consider `O=C(NCc1ccncc1)c1cccc(-c2cnc3c(c2)N(Cc2cc(Cl)ccc2C(F)(F)F)CCN3)c1` [Example 334, 3-{1-[5-Chloro-2-(trifluoromethyl)benzyl]-1,2,3,4-tetrahydropyrido[2,3-b]pyrazin-7-yl}-N-pyridin-4-ylmethylbenzamide], for which the IC50 is below 100 nM.

In the case of `O=C(c1ccc(-c2cnc3c(c2)N(Cc2cc(Cl)ccc2C(F)(F)F)CCN3)cc1)N1CCN(c2ccc(Cl)cc2)CC1` [Example 370, [4-(4-Chlorophenyl)piperazin-1-yl]-(4-{1-[5-chloro-2-(trifluoromethyl)benzyl]-1,2,3,4-tetrahydropyrido[2,3-b]pyrazin-7-yl}phenyl)methanone], the IC50 lay within 100 to 1000 nM.

For the molecule `O=C(c1ccccc1)N1CCN(C(=O)c2cccc(-c3cnc4c(c3)N(Cc3cc(Cl)ccc3C(F)(F)F)CCN4)c2)CC1` [Example 323, (4-Benzoylpiperazin-1-yl)-(3-{1-[5-Chloro-2-(trifluoromethyl)benzyl]-1,2,3,4-tetrahydropyrido[2,3-b]pyrazin-7-yl}phenyl)methanone], the IC50 was in the range of 100 to 1000 nM.

With `O=C(NC1CCc2ccccc21)c1ccc(-c2cnc3c(c2)N(Cc2cc(Cl)ccc2C(F)(F)F)CCN3)cc1` (stereo not shown) [Example 410, 4-{1-[5-Chloro-2-(trifluoromethyl)benzyl]-1,2,3,4-tetrahydropyrido[2,3-b]pyrazin-7-yl}-N-indan-1-ylbenzamide], the 50% inhibitory concentration (IC50) is 100 to 1000 nM.

On to `O=C(c1cccc(-c2cnc3c(c2)N(Cc2cc(Cl)ccc2C(F)(F)F)CCN3)c1)N1CCC(O)(c2ccc(Cl)cc2)CC1` [Example 309, [4-(4-Chlorophenyl)-4-hydroxypiperidin-1-yl]-(3-{1-[5-Chloro-2-(trifluoromethyl)benzyl]-1,2,3,4-tetrahydropyrido[2,3-b]pyrazin-7-yl}phenyl)methanone], for which the IC50 fell in the range of 100 to 1000 nM.

Consider `COc1ccccc1N1CCN(C(=O)c2cccc(-c3cnc4c(c3)N(Cc3cc(Cl)ccc3C(F)(F)F)CCN4)c2)CC1` [Example 311, (3-{1-[5-Chloro-2-(trifluoromethyl)benzyl]-1,2,3,4-tetrahydropyrido[2,3-b]pyrazin-7-yl}phenyl)-[4-(2-methoxyphenyl)piperazin-1-yl]methanone], for which the IC50 is 100 to 1000 nM.
